Columns and labels:
glucose dehydrogenase [1] = biological target: T1, glucose dehydrogenase (Priestia megaterium, UniProt P07999); test: Kinetic glucose determination with glucose-dehydrogenase, Example 5 (95 mU enzyme); type: biochemical
Description: (§1) The following test mixture was used:
90 mmoles phosphate buffer pH = 7.6
40 mmoles sulfosalicylic acid
95 mU glucose dehydrogenase

glucose dehydrogenase [2] = biological target: T1, glucose dehydrogenase; test: Kinetic glucose determination with glucose-dehydrogenase, Example 4 (1.8 U enzyme); type: biochemical
Description: as §1
0.12 mole phosphate buffer pH = 7.6
40 millimoles sulfosalicylic acid
0.86 millimole - 2.59 millimoles glucose
1.8 U glucose-dehydrogenase

glucose dehydrogenase [3] = biological target: T1, glucose dehydrogenase; settings: Lineweaver-Burk diagram, FIG. 1; 330 and 500 mmoles KSCN per liter of test solution
Description: The reaction was started by the admixture of 20 μl of 200 mmoles/l NAD^+, and recording was begun 10 seconds later: paper feed 5 cm/min, spread 20 cm for E = 0 - 1.
For the determination of the angle α with the axis of time the virtually linear initial area of the recording was evaluated; for the determination of the type of inhibitor, the reciprocals of tangent α (identical with the initial rate, for practical purposes) were plotted as ordinates and the reciprocals of the millimolar glucose concentrations used in the test were plotted as abscissae (Lineweaver-Burk diagram).
20 μl of specimen was incubated in the cell at 25°C with 500 μl of stabilized buffer-enzyme-inhibitor mixture and the reaction was started by the admixture of 20 μl NAD^+ (150 mg/ml H2 O). 20 seconds after the start of the reaction, recording was performed at a paper feed of 5 cm/min at Hg 366 nm, and the layer thickness 1.00 cm, and the angle α was determined 20 seconds after the start of the reaction in each case.

GlucDH = GlucDH (Priestia megaterium, UniProt P07999); test: Kinetic glucose determination with GlucDH, average inhibition (Table 3); type: biochemical
Chain of GlucDH (P07999 whole entry): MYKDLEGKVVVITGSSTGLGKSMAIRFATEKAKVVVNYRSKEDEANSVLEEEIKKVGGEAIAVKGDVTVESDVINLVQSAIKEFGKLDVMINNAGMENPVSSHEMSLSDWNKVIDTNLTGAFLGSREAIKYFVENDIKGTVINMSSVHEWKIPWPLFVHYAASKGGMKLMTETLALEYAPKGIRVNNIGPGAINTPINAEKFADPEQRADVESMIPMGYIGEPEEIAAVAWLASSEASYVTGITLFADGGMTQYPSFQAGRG
Description: (§2) The exclusion of the interference of foreign inhibitors that can be achieved by the invention is illustrated by the measurements obtained for two different enzymes and two different inhibitors each, which are listed in the following two tables.

uricase [4] = biological target: T2, uricase (Sus scrofa, UniProt P16164); test: Inhibition of Uricase, Example 6; type: biochemical
T2 sequence (P16164 2-304 limits assumed): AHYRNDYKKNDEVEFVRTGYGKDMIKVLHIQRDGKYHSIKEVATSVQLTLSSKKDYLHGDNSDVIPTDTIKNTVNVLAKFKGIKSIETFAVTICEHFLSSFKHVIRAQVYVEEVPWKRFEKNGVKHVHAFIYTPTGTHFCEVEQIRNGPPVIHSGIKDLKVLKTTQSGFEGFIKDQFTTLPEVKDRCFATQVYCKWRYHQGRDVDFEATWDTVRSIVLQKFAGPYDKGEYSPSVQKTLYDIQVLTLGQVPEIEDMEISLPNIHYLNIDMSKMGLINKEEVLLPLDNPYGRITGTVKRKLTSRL
Description: as §1
96 mmoles borate buffer pH = 9.5
114 - 7.6 μmoles uric acid

[5] = biological target: uricase (prepared from swine liver) (Sus scrofa, UniProt P16164)
Description: Recording is started 20 seconds after initiation of the reaction: paper speed 2 cm/min, spread 20 cm for E=0-1. With an angle measuring means, the angle α formed with the time axis is measured at the beginning of each recording. The reciprocals of tan α are plotted as ordinates against the corresponding reciprocal uric acid concentrations (Lineweaver-Burk diagram). The calibration straight line is drawn through the points obtained with and without the addition of potassium thiocyanate.
For the determination of the apparent Michaelis constant, the reciprocals of the tangent α are plotted as ordinates, and the reciprocal molar substrate concentrations in the test mixture as abscissae. The apparent Michaelis constant is found as a negative reciprocal of the abscissae intersections of the straight lines of regression (insertion of suitable small values for 1/cS followed by graphic evaluation).

uricase [6] = biological target: T2, uricase; test: Kinetic uric acid determination with uricase, average inhibition (Table 4); type: biochemical
Description: as §2

[7] = biological target: uricase obtained from swine liver (Sus scrofa, UniProt P16164); settings: read-out: Michaelis constant of uricase, Tiffany et al., Anal. Chem. 45, 1716-23 (1973); cited from earlier work
[8] = 38.5 mmoles KSCN, glucose [S] 0.86 mmoles
[9] = 38.5 mmoles KSCN, glucose [S] 1.29 mmoles
[10] = 38.5 mmoles KSCN, glucose [S] 1.72 mmoles
[11] = 38.5 mmoles KSCN, glucose [S] 2.59 mmoles
[12] = 38.5 mmoles KSCN, glucose [S] 3.45 mmoles
[13] = 0.31 mole KSCN, glucose [S] 0.86 mmoles
[14] = 0.31 mole KSCN, glucose [S] 1.29 mmoles
[15] = 0.31 mole KSCN, glucose [S] 1.72 mmoles
[16] = 0.31 mole KSCN, glucose [S] 2.59 mmoles
[17] = 14 nmoles phloretin, glucose [S] 0.86 mmoles
[18] = 14 nmoles phloretin, glucose [S] 1.29 mmoles
[19] = 14 nmoles phloretin, glucose [S] 1.72 mmoles
[20] = 14 nmoles phloretin, glucose [S] 2.59 mmoles
[21] = 14 nmoles phloretin, glucose [S] 3.45 mmoles
[22] = 1.4 nmoles phloretin, glucose [S] 0.86 mmoles
[23] = 1.4 nmoles phloretin, glucose [S] 1.29 mmoles
[24] = 1.4 nmoles phloretin, glucose [S] 1.72 mmoles
[25] = 1.4 nmoles phloretin, glucose [S] 2.59 mmoles
[26] = 0.02 mmole xanthine, [S] 7.6 μmole
[27] = 0.02 mmole xanthine, [S] 38 μmole
[28] = 0.02 mmole xanthine, [S] 114 μmole

T1 sequence (P07999 whole entry): as the sequence (P07999 whole entry) above

## N#CS [KSCN, Potassium thiocyanate]
Glucose dehydrogenase [1]; [8]
  % inh.: 17%
  ΔE/min: 28.0
Glucose dehydrogenase [1]; [9]
  % inh.: 18.8%
  ΔE/min: 40.3
Glucose dehydrogenase [1]; [10]
  % inh.: 21.69%
  ΔE/min: 49.7
Glucose dehydrogenase [1]; [11]
  % inh.: 8%
  ΔE/min: 72.3
Glucose dehydrogenase [1]; [12]
  % inh.: 17%
  ΔE/min: 90
Glucose dehydrogenase [2]; [13]
  % inh.: 85.5%
  ΔE/min: 4.5
Glucose dehydrogenase [2]; [14]
  % inh.: 80.3%
  ΔE/min: 8.0
Glucose dehydrogenase [2]; [15]
  % inh.: 80.6%
  ΔE/min: 10.5
Glucose dehydrogenase [2]; [16]
  % inh.: 77.5%
  ΔE/min: 17
Glucose dehydrogenase [3]
  type of inhibitor: competitive type of inhibitor
GlucDH; KSCN 38.5 millimoles
  Average inhibition in %: 17%
GlucDH; KSCN 310 millimoles
  Average inhibition in %: 78%
Uricase [4]; 0.5 mole KSCN, [S] 7.6 μmole
  % inh.: 86%
  ΔE/min: 3.3
Uricase [4]; 0.5 mole KSCN, [S] 38 μmole
  % inh.: 81%
  ΔE/min: 16.3
Uricase [4]; 0.5 mole KSCN, [S] 114 μmole
  % inh.: 73%
  ΔE/min: 46
[5]; 687 mmoles per liter of test solution, uric acid as substrate, 25°C
  apparent Michaelis constant: 1 mmol/L
[5]; Lineweaver-Burk plot, same ordinate intersection
  type of inhibitor: competitive inhibitor
Uricase [6]; KSCN 10 millimoles
  Average inhibition in %: 17%
Uricase [6]; KSCN 40 millimoles
  Average inhibition in %: 41%
Uricase [6]; KSCN 500 millimoles
  Average inhibition in %: 82%

## O=C(CCc1ccc(O)cc1)c1c(O)cc(O)cc1O [Phloretin, phloretin]
Glucose dehydrogenase [1]; [17]
  % inh.: 74%
  ΔE/min: 8.7
Glucose dehydrogenase [1]; [18]
  % inh.: 77%
  ΔE/min: 11.3
Glucose dehydrogenase [1]; [19]
  % inh.: 78%
  ΔE/min: 14.0
Glucose dehydrogenase [1]; [20]
  % inh.: 76%
  ΔE/min: 20.3
Glucose dehydrogenase [1]; [21]
  % inh.: 75%
  ΔE/min: 26.7
Glucose dehydrogenase [2]; [22]
  % inh.: 22.8%
  ΔE/min: 24.0
Glucose dehydrogenase [2]; [23]
  % inh.: 26.0%
  ΔE/min: 30.0
Glucose dehydrogenase [2]; [24]
  % inh.: 15.8%
  ΔE/min: 45.5
Glucose dehydrogenase [2]; [25]
  % inh.: 17.1%
  ΔE/min: 62.5
GlucDH; Phloretin 1.4 micromoles
  Average inhibition in %: 20%
GlucDH; Phloretin 14 micromoles
  Average inhibition in %: 76%

## O=c1[nH]c(=O)c2[nH]cnc2[nH]1 [Xanthine, xanthine]
Uricase [4]; [26]
  % inh.: 49%
  ΔE/min: 14
Uricase [4]; [27]
  % inh.: 25%
  ΔE/min: 66
Uricase [4]; [28]
  % inh.: 26%
  ΔE/min: 127
Uricase [6]; Xanthine 20 micromoles
  Average inhibition in %: 34%
Uricase [6]; Xanthine 40 micromoles
  Average inhibition in %: 60%
Uricase [6]; Xanthine 80 micromoles
  Average inhibition in %: 76%

## O=c1[nH]c(=O)c2[nH]c(=O)[nH]c2[nH]1 [uric acid]
[7]
  Km: 17 µM
